# Test system: NT2/D1-R1 control and DNMT3B knockdown cells
# Assay: Genome-wide expression analysis with PAM clusters, control and DNMT3B knockdown cells (Tables 8-14)
# Conditions: sh-3B + aza, NT2/D1-R1 DNMT3B knockdown, decitabine 10 nM 3 days
smiles,measurement,setting,value
Nc1ncn([C@H]2C[C@H](O)[C@@H](CO)O2)c(=O)n1 [aza],"ACSS2 (NM_0010765) gene expression, Mean",,406.693
same,"ADCK1 (NM_020421) gene expression, Mean",,305.179
same,"ADCY1 (NM_021116) gene expression, Mean",,138.949
same,"AGAP1 (NM_014914) gene expression, Mean",,225.72
same,"AK056312 gene expression, Mean",,471.555
same,"ANKRD9 (NM_152326) gene expression, Mean",,896.077
same,"APEH (NM_001640) gene expression, Mean",,1236.16
same,"APP (NM_201414) gene expression, Mean",,393.758
same,"C1orf115 (NM_024709) gene expression, Mean",,380.885
same,"C2orf34 (NM_024766) gene expression, Mean",,286.591
same,"C7orf47 (NM_145030) gene expression, Mean",,749.147
same,"C16orf35 (NM_0010394) gene expression, Mean",,464.104
same,"CA4 (NM_000717) gene expression, Mean",,1313.05
same,"CACNA2D2 (NM_006030) gene expression, Mean",,398.095
same,"CD24 (NM_013230) gene expression, Mean",,4095.34
same,"CD248 (NM_020404) gene expression, Mean",,166.587
same,"CDC42EP5 (NM_145057) gene expression, Mean",,232.63
same,"CDH3 (NM_001793) gene expression, Mean",,1031.14
same,"CEBPB (NM_005194) gene expression, Mean",,886.982
same,"CHST13 (NM_152889) gene expression, Mean",,184.993
same,"CLASP1 (NM_015282) gene expression, Mean",,448.757
same,"CLIP2 (NM_032421) gene expression, Mean",,216.273
same,"COMMD1 (NM_152516) gene expression, Mean",,327.95
same,"COMMD7 (NM_0010993) gene expression, Mean",,1236.98
same,"CRMP1 (NM_0010148) gene expression, Mean",,628.721
same,"CTNNBIP1 (NM_020248) gene expression, Mean",,181.632
same,"CXCL16 (NM_022059) gene expression, Mean",,276.818
same,"CYP2F1 (NM_000774) gene expression, Mean",,134.435
same,"CYP2S1 (NM_030622) gene expression, Mean",,1003.81
same,"DBC1 (NM_014618) gene expression, Mean",,313.757
same,"DDIT4 (NM_019058) gene expression, Mean",,558.55
same,"DGKQ (NM_001347) gene expression, Mean",,236.075
same,"DLL3 (NM_016941) gene expression, Mean",,150.963
same,"DPYSL3 (NM_001387) gene expression, Mean",,841.778
same,"DYM (NM_017653) gene expression, Mean",,332.811
same,"DYSF (NM_003494) gene expression, Mean",,345.371
same,"EPHA1 (NM_005232) gene expression, Mean",,886.512
same,"EVI5L (NM_145245) gene expression, Mean",,248.688
same,"EVL (NM_016337) gene expression, Mean",,840.767
same,"EXTL3 (NM_001440) gene expression, Mean",,869.111
same,"F11R (NM_016946) gene expression, Mean",,218.843
same,"FAF1 (NM_007051) gene expression, Mean",,266.415
same,"FAM125A (NM_138401) gene expression, Mean",,558.795
same,"FAM127A (NM_0010781) gene expression, Mean",,1016.07
same,"FCGBP (NM_003890) gene expression, Mean",,279.685
same,"FDFT1 (NM_004462) gene expression, Mean",,705.216
same,"FIGNL2 (NM_0010136) gene expression, Mean",,289.159
same,"FLNB (NM_001457) gene expression, Mean",,960.275
same,"FOXN3 (NM_005197) gene expression, Mean",,518.292
same,"GAL (NM_015973) gene expression, Mean",,1768.85
same,"GAS7 (NM_201433) gene expression, Mean",,308.927
same,"GLG1 (NM_012201) gene expression, Mean",,913.909
same,"GRAMD1A (NM_020895) gene expression, Mean",,607.142
same,"GTF3C1 (NM_001520) gene expression, Mean",,626.338
same,"HCFC1R1 (NM_0010020) gene expression, Mean",,798.561
same,"HESX1 (NM_003865) gene expression, Mean",,379.045
same,"HINT2 (NM_032593) gene expression, Mean",,706.883
same,"HIST3H2A (NM_033445) gene expression, Mean",,282.379
same,"HIST4H4 (NM_003541) gene expression, Mean",,314.561
same,"HK1 (NM_033500) gene expression, Mean",,4205.36
same,"IDH1 (NM_005896) gene expression, Mean",,1445.11
same,"IL21R (NM_181078) gene expression, Mean",,161.219
same,"JPH3 (NM_020655) gene expression, Mean",,214.843
same,"KIF1A (NM_004321) gene expression, Mean",,150.02
same,"KIF1B (NM_015074) gene expression, Mean",,393.388
same,"LDB2 (NM_001290) gene expression, Mean",,259.706
same,"LDOC1 (NM_012317) gene expression, Mean",,881.126
same,"LHFPL4 (NM_198560) gene expression, Mean",,515.175
same,"LONP1 (NM_004793) gene expression, Mean",,1192.71
same,"LPCAT3 (NM_005768) gene expression, Mean",,456.787
same,"LRBA (NM_006726) gene expression, Mean",,267.501
same,"LRRC33 (NM_198565) gene expression, Mean",,257.521
same,"MAPK3 (NM_0010400) gene expression, Mean",,447.115
same,"MAPKAP1 (NM_0010066) gene expression, Mean",,274.663
same,"MED30 (NM_080651) gene expression, Mean",,707.11
same,"MID1IP1 (NM_021242) gene expression, Mean",,1496.95
same,"MKRN1 (NM_013446) gene expression, Mean",,3678.37
same,"MSRB2 (NM_012228) gene expression, Mean",,698.39
same,"MYO5C (NM_018728) gene expression, Mean",,203.184
same,"NANOG (NM_024865) gene expression, Mean",,1405.64
same,"NCOR2 (NM_006312) gene expression, Mean",,1205.94
same,"NDUFS4 (NM_002495) gene expression, Mean",,375.498
same,"NFE2L3 (NM_004289) gene expression, Mean",,395.959
same,"NGFRAP1 (NM_206917) gene expression, Mean",,1522.67
same,"NKX3-2 (NM_001189) gene expression, Mean",,358.543
same,"NM_014745 gene expression, Mean",,246.953
same,"NPAS1 (NM_002517) gene expression, Mean",,227.998
same,"NPTX2 (NM_002523) gene expression, Mean",,279.223
same,"ODZ3 (NM_0010804) gene expression, Mean",,220.124
same,"P4HB (NM_000918) gene expression, Mean",,2039.07
same,"PACSIN1 (NM_020804) gene expression, Mean",,268.257
same,"PCDH19 (NM_020766) gene expression, Mean",,187.553
same,"PCK2 (NM_0010180) gene expression, Mean",,126.174
same,"PDZD4 (NM_032512) gene expression, Mean",,283.495
same,"PEMT (NM_148172) gene expression, Mean",,1036.99
same,"PEX14 (NM_004565) gene expression, Mean",,423.992
same,"PGM1 (NM_002633) gene expression, Mean",,3256.12
same,"PHC1 (NM_004426) gene expression, Mean",,2226.1
same,"PIM2 (NM_006875) gene expression, Mean",,2475.84
same,"PITPNC1 (NM_181671) gene expression, Mean",,287.618
same,"PNKP (NM_007254) gene expression, Mean",,570.846
same,"PPAP2A (NM_176895) gene expression, Mean",,646.273
same,"PPP1R1B (NM_181505) gene expression, Mean",,588.401
same,"PQLC3 (NM_152391) gene expression, Mean",,307.634
same,"PRSS8 (NM_002773) gene expression, Mean",,925.924
same,"PSAT1 (NM_021154) gene expression, Mean",,2370.22
same,"PTOV1 (NM_017432) gene expression, Mean",,1244.12
same,"PTPLA (NM_014241) gene expression, Mean",,295.309
same,"RAB3IP (NM_175624) gene expression, Mean",,976.727
same,"RALY (NM_007367) gene expression, Mean",,1409.6
same,"RASIP1 (NM_017805) gene expression, Mean",,236.587
same,"RASL11B (NM_023940) gene expression, Mean",,570.022
same,"RCN2 (NM_002902) gene expression, Mean",,957.657
same,"REEP6 (NM_138393) gene expression, Mean",,581.805
same,"RNF130 (NM_018434) gene expression, Mean",,258.36
same,"ROD1 (NM_005156) gene expression, Mean",,1065.57
same,"RPS6KA2 (NM_0010069) gene expression, Mean",,170.158
same,"SAT1 (NM_002970) gene expression, Mean",,2411.02
same,"SCARB1 (NM_005505) gene expression, Mean",,698.95
same,"SCNN1A (NM_001038) gene expression, Mean",,2384.6
same,"SEMA4B (NM_198925) gene expression, Mean",,455.134
same,"SEMA4D (NM_006378) gene expression, Mean",,404.578
same,"SEMA6B (NM_032108) gene expression, Mean",,327.203
same,"SH2B3 (NM_005475) gene expression, Mean",,459.878
same,"SLC3A2 (NM_0010132) gene expression, Mean",,701.201
same,"SLC8A2 (NM_015063) gene expression, Mean",,221.546
same,"SLC16A10 (NM_018593) gene expression, Mean",,222.7
same,"SLC22A23 (NM_021945) gene expression, Mean",,371.628
same,"SND1 (NM_014390) gene expression, Mean",,806.495
same,"SOX2 (NM_003106) gene expression, Mean",,507.636
same,"SPRY1 (NM_005841) gene expression, Mean",,278.849
same,"SPSB2 (NM_032641) gene expression, Mean",,738.293
same,"SRPX (NM_006307) gene expression, Mean",,221.585
same,"SURF6 (NM_006753) gene expression, Mean",,1956.16
same,"TBCD (NM_005993) gene expression, Mean",,565.581
same,"TCEA2 (NM_198723) gene expression, Mean",,471.659
same,"TCF7L1 (NM_031283) gene expression, Mean",,182.485
same,"TIMP4 (NM_003256) gene expression, Mean",,657.953
same,"TMC6 (NM_007267) gene expression, Mean",,426.897
same,"TMEM145 (NM_173633) gene expression, Mean",,204.077
same,"TPST2 (NM_0010085) gene expression, Mean",,683.535
same,"TRAPPC9 (NM_031466) gene expression, Mean",,145.068
same,"TSPAN9 (NM_006675) gene expression, Mean",,1493.67
same,"TUBB4 (NM_006087) gene expression, Mean",,455.752
same,"UBE2E2 (NM_152653) gene expression, Mean",,521.892
same,"UNC84B (NM_015374) gene expression, Mean",,307.131
same,"VCX2 (NM_016378) gene expression, Mean",,178.538
same,"VCX3A (NM_016379) gene expression, Mean",,405.641
same,"VCX3B (NM_0010018) gene expression, Mean",,466.812
same,"VSNL1 (NM_003385) gene expression, Mean",,462.603
same,"WDR8 (NM_017818) gene expression, Mean",,819.149
same,"XBP1 (NM_0010795) gene expression, Mean",,860.839
same,"XM_373896 gene expression, Mean",,451.855
same,"XM_926633 gene expression, Mean",,6671.37
same,"XM_932919 gene expression, Mean",,278.004
same,"XM_933796 gene expression, Mean",,430.873
same,"XM_943677 gene expression, Mean",,268.065
same,"ZBTB46 (NM_025224) gene expression, Mean",,246.643
same,"ZSWIM4 (NM_023072) gene expression, Mean",,558.806
same,"HIST1H2BK (NM_080593) gene expression, Mean",first HIST1H2BK entry (r906),1161.66
same,"TRPC4AP (NM_015638) gene expression, Mean",first TRPC4AP entry (r880),1093.15
same,"HIST1H2BK (NM_080593) gene expression, Mean",second HIST1H2BK entry (r952),355.319
same,"TRPC4AP (NM_015638) gene expression, Mean",second TRPC4AP entry (r892),1137.74

# Source: patent US9476099B2 (TRUSTEES OF DARTMOUTH COLLEGE, priority 2012, dated 2016)
